{"source": "paper PMC8958510", "about": "(Journal of Medicinal Chemistry, 2022)", "key": {"SAMP8 mice": {"system": "SAMP8 mice", "assay": "Novel object recognition test (NORT) in SAMP8 mice", "type": "in vivo, mouse", "conditions": "2 mg kg^–1 day^–1 oral, 4 weeks, vs vehicle-treated", "excerpt": "(§1) In Vivo Proof-of-Concept of the Dual sEH / AChE Inhibitor […] in SAMP8 Mice Animals and treatment. The senescence-accelerated mouse-prone 8 (SAMP8) is an accelerated aging model established through phenotypic selection from AKR/J mice by […]\n(§2) abnormal APP and β-amyloid processing and tau pathology, among others. Likewise, SAMP8 […]\n(§3) and oxidative stress markers are present at early ages and during adultness.15 In this work, 5-month-old male SAMP8 mice were used to perform behavioral and molecular analyses.\n(§4) Animals were randomly divided into SAMP8 control (n=8) and SAMP8 treated with 12c […]\n(§5) (n=8, 2 mg kg‒1 day‒1). The animals had free access to food and water and were kept under standard temperature conditions (22 ± 2 °C) and 12-h/12-h light/dark cycles (300 lux/0 lux).\nCompound 12c was dissolved in 1.8% (2-hydroxypropyl)-β-cyclodextrin (Sigma-Aldrich, St.\nLouis, MO) and administered through drinking water for 4 weeks (Figure S6 of the Supporting Information). Control groups received water plus 1.8% (2-hydroxypropyl)-β-cyclodextrin during the treatment period. […]\nhad been replaced by a novel one. The behavior was recorded, and the time that the mice spent exploring the new object (TN) and the old one (TO) were measured manually. […]\nThe discrimination index (DI) was calculated as (TN‒TO)/(TN+TO). […]"}, "[1]": {"system": "hippocampus of SAMP8 mice", "assay": "Hippocampal gene expression of inflammatory markers by qPCR in SAMP8 mice", "type": "in vivo, mouse", "conditions": "2 mg kg^–1 day^–1 oral, 4 weeks, vs control", "description": "Compostela, Spain). The human, rat and mice pooled microsomes, with a protein content of 20 mg mL‒1, were purchased from Tebu-Xenotech. The compounds were incubated in a 96-well microplate at 37 °C with the microsomes in 50 mM phosphate buffer (pH = 7.4) containing as cofactors 30 mM MgCl2, 10 mM NADP, 100 mM glucose-6-phosphate and 40 […]\nSamples (75 µL) were taken from each well at 0, 10, 20, 40 and 60 min and transferred to a microplate. 4 °C Acetonitrile (75 µL) and internal standard (rolipram) were then added for inactivating the microsomes, and water with 0.5% formic acid (30 µL) was subsequently added for improving the chromatographic conditions, keeping the mixtures at 4 °C. The plate was centrifuged at 46,000 g for 30 min at 15 °C and supernatants were taken and analyzed in a UPLC-MS/MS system (UPLC QSM Waters Acquity) using reverse phase Acquity UPLC® HSST3 1.7 μm (2.1 mm × 50 mm, Waters) as the stationary phase, 0.1% formic acid in water (A) / 0.1% formic acid in acetonitrile (B) as the mobile phase, a flow of 0.8 mL min‒1, and the […]\nThe metabolic stability of the compounds was calculated from the logarithm of the remaining compound at each of the time points studied.\nas §1, §2, §3, §4, §5\nCompound 12c was dissolved in 1.8% (2-hydroxypropyl)-β-cyclodextrin (Sigma-Aldrich, St. […]"}, "[2]": {"molecular_target": "PAS of Electrophorus electricus AChE (EeAChE) (Electrophorus electricus, UniProt O42275)", "sequence (O42275 24-633)": "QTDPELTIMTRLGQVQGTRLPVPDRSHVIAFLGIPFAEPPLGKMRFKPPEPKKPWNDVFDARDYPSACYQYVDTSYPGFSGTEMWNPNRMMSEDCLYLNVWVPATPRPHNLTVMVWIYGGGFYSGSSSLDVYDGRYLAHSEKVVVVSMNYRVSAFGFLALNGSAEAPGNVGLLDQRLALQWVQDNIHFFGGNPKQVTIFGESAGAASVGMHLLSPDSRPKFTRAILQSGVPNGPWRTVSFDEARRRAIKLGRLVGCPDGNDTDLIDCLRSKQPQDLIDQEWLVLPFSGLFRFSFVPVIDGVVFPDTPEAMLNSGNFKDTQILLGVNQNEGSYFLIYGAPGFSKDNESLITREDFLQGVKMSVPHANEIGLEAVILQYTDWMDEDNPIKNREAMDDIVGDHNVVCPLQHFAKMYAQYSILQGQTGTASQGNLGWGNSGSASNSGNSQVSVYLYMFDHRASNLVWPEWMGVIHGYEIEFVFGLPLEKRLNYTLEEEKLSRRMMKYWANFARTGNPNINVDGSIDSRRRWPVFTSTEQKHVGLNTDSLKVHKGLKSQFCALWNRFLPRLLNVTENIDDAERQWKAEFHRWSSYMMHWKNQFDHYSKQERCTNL", "assay": "Propidium displacement studies (PAS of AChE)", "type": "binding", "parameters": "purchased Sigma-Aldrich type VI-S", "conditions": "mean ± SD of two independent experiments, read-out: KD (displacement of propidium from PAS)", "method": "Propidium Displacement Studies.\nelectricus AChE (EeAChE) (type VI-S, Sigma-Aldrich) was determined using the PAS-\nspecific ligand propidium iodide (P) (Sigma-Aldrich), following a described procedure.9\nComplexation of propidium iodide and AChE leads to a shift in the excitation wavelength.9\nFluorescence intensity was monitored with a Jasco 6200 spectrofluorometer (Jasco Europe,\nItaly) using a 0.5 mL quartz cuvette at rt. EeAChE (2 μM) was first incubated with 8 mM\npropidium iodide in 1 mM Tris-HCl, pH 8.0 at rt.\nprepared in MeOH. In the back titration experiments of the propidium‒AChE complex by\nfluorescence emission was determined. KD values were obtained after processing the raw data\nvalues are expressed as mean ± standard deviation (SD) of two independent experiments."}, "[3]": {"assay": "PAMPA-BBB assay for brain permeability", "method": "PAMPA-BBB assay for brain permeability. The brain permeability (Pe) of the target\ncompounds was assessed by an in vitro parallel artificial membrane permeability assay for\nblood‒brain barrier penetration (PAMPA-BBB assay),12 which uses a lipid extract of porcine\nbrain membrane as a BBB model. The assay was validated by comparing experimental and\nreported Pe values of a set of fourteen commercial drugs (Table S2 of the Supporting\nOn the basis of this equation and the limits established by Di et al. for BBB\nindependent experiments, each performed in triplicate, were carried out for each compound."}}}
{"smiles": "O=C(Nc1ccc(OC(F)(F)F)cc1)NC1CCN(C(=O)CCCCNc2c3c(nc4cc(Cl)ccc24)CCCC3)CC1", "note": "[12c, 1-{1-{5-[(6-Chloro-1,2,3,4-tetrahydroacridin-9-yl)amino]pentanoyl}piperidin-4-yl}-3-[4-(trifluoromethoxy)phenyl]urea]", "values": [{"measurement": "short-term working memory (NORT discrimination index)", "setting": "SAMP8 mice; 2 h retention", "result": "significantly ameliorated"}, {"measurement": "long-term working memory (NORT discrimination index)", "setting": "SAMP8 mice; 24 h retention", "result": "significantly ameliorated"}, {"measurement": "Gfap gene expression", "setting": "[1]", "result": "tendency toward reduced gene expression"}, {"measurement": "Il-1β gene expression", "setting": "[1]", "result": "tendency toward reduced gene expression"}, {"measurement": "Il-6 gene expression", "setting": "[1]", "result": "significant reduction"}, {"measurement": "Kd", "setting": "[2]", "result": "3.95 ± 0.35", "unit": "µM"}, {"measurement": "BBB permeation class", "setting": "[3]; PAMPA-BBB prediction", "result": "CNS+ (High permeation, CNS+: Pe > 5.2)"}, {"measurement": "Papp", "setting": "[3]; pig, PAMPA", "result": "8.4 ± 0.7", "unit": "×10⁻⁶ cm/s"}]}
